Experimental data as given in patent US5580904A, “Formamido and carboxyamido compounds which can be retained in brain” (Drug Delivery System Institute, Ltd., priority 1992, dated 1996).
Where a name gives a salt, the structure may show the parent alone. Read-outs that look alike come from different tables or passages of the source.

Type: in vivo
Details: 5 mg/kg on the basis of DOPA, into the femoral vein, SD rats
Experimental: The distribution and residence in brain of the compounds according to the present invention were evaluated as follows.
Blood samples were taken out from abdominal aorta after a certain period of […]. Immediately after the exsanguination, whole brain was removed. Experiments were carried out with 3 rats at each blood sampling point.
The DOPA concentration in the whole brain was determined in accordance with the method "New Biochemical Experiment Course, Vol. 11, Neurobiochemistry,p. 289-290 (edited by Biochemical Society, Japan, published by Tokyo Kagaku-Dojin, 1990)." As the controls, the Boc-eliminated Compound D and DOPA were administered in the same manner as above to determine the DOPA concentration.

| SMILES | Area under the curve of concentration (AUC) of DOPA in brain (Time 0-2 hr) [ng·min/g] | Area under the curve of concentration (AUC) of DOPA in brain (Time 0-4 hr) [ng·min/g] |
| --- | --- | --- |
| CC(=C(CCOC(=O)[C@@H](N)Cc1ccc(OC(=O)C(C)(C)C)c(OC(=O)C(C)(C)C)c1)SSC(C)C)N(C)C=O [3 (b)] | – | 82476 |
| C=CCSS/C(CCOC(=O)C(N)Cc1ccc(OC(=O)C(C)(C)C)c(OC(=O)C(C)(C)C)c1)=C(/C)N(C=O)Cc1cnc(C)nc1N (stereo not drawn) [35 (b), N-[(4-amino-2-methyl-5-pyrimidyl)methyl]-N-[4-[2-amino-3-(3,4-dipivaloyloxyphenyl)propionyl]oxy-1-methyl-2-[(2-propenyl)dithio]-1-butenyl]formamide] | – | 10626 |
| C/C(=C(\CCOC(=O)C(N)Cc1ccc(OC(=O)C(C)(C)C)c(OC(=O)C(C)(C)C)c1)SSCC1CCCO1)N(C=O)Cc1cnc(C)nc1N (stereo not drawn) [29 (b), N-[(4-amino-2-methyl-5-pyrimidyl)methyl]-N-[4-[2-amino-3-(3,4-dipivaloyloxyphenyl)propionyl]oxy-1-methyl-2-[(tetrahydrofurfuryl)dithio]-1-butenyl]formamide] | 6659 | 7151 |

Further lines, results first:

| Area under the curve of concentration (AUC) of DOPA in brain (Time 0-2 hr) [ng·min/g] | Area under the curve of concentration (AUC) of DOPA in brain (Time 0-4 hr) [ng·min/g] | SMILES |
| --- | --- | --- |
| 34595 | – | C/C(=C(\CCOC(=O)C(N)Cc1ccc(OC(=O)C(C)(C)C)c(OC(=O)C(C)(C)C)c1)SSC(C)C)N(C=O)Cc1cnc(C)nc1N (stereo not drawn) [Example 30 (b), N-[(4-amino-2-methyl-5-pyrimidyl)methyl]-N-[4-[2-amino-3-(3,4-dipivaloyloxyphenyl)propionyl]oxy-1-methyl-2-[(2-propyl)dithio]-1-butenyl]formamide hydrochloride] |
| 3169 | 3277 | CC(C)(C)C(=O)Oc1ccc(C[C@H](N)C(=O)O)cc1OC(=O)C(C)(C)C [Boc-elimination of Compound D, reference compound] |
| 6035 | 6035 | N[C@@H](Cc1ccc(O)c(O)c1)C(=O)O [DOPA, 3,4-dihydroxy phenylalanine, reference compound] |
